Assay results as given in patent US20100249064A1, “METHODS AND COMPOSITIONS FOR TREATING DISEASES AND CONDITIONS INVOLVING HIGHER MOLECULAR WEIGHT HYALURONAN” (University of Chicago, priority 2007, published 2010).

Columns and labels:
caveolin-1 = assay: Caveolin-1 expression in mouse lung homogenates (immunoblot); assay type: in vivo; conditions: HMW-HA+LPS
Procedure: Animal Preparation and Treatment. Male C57BL/6J, B6129N2, CD44^−/− or caveolin-1^−/− mice (8-10 weeks, Jackson Laboratories, Bar Harbor, Me.) were anesthetized with intraperitoneal ketamine (150 mg/kg) and acetylpromazine (15 mg/kg) before exposure of the right internal jugular vein via neck incision. LPS (2.5 mg/kg) or water (control) were instilled intratracheally. Four hours later, mice receive high MW HA (1.5 mg/kg) or water control through the internal jugular vein. The animals were allowed to recover for 24 hours after LPS before bronchioalveolar lavage protein and cytokine concentration and/or lung immunohistochemistry/immunoblot analysis (Peng et al., 2004).
Immunoblot analysis of CD44 and Caveolin-1 expression in control, LPS- and HA-treated mouse lung homogenates. CD44 is highly likely to be important in lung disease as CD44−/− mice develop lung fibrosis, inflammatory cell recruitment and accumulation of hyaluronan fragments at sites of lung injury (Teder et al., 2002). […] Caveolin-1 can be differentially regulated in various models of acute lung injury (ALI). Monocrotaline-induced rodent pulmonary hypertension results in a loss of lung EC caveolin-1 expression (Mathew et al., 2004). In contrast, there is no change in pulmonary caveolin-1 expression in lipopolyscaaharide (LPS)-induced sepsis with lung injury (Garrean et al., 2006). […]

hyaluronidase = assay: VEGF-induced hyaluronidase expression (immunoblot); assay type: cell-based, human; conditions: 100 nM HMW-HA, 100 nM VEGF
Procedure: Determination of the role of HMW-HA/CD44 interactions in regulating hyaluronidase activity and angiogenesis in vitro. Human pulmonary microvascular EC (HPMVEC) (Cambrex), grown in EBM-2 complete medium (Cambrex) at 37° C. in a humidified atmosphere of 5% CO2, 95% air, with passages 6-10 used for experimentation was treated with or without 100 nM HMW-HA and/or 100 nM VEGF in the presence or absence of CD44 isoform-specific blocking antibodies (EMD Biosciences), siRNA (scramble, CD44, Hyal-1, Hyal-2, Hyal-3 or Hyal-4) and the potent hyaluronidase inhibitor, L-ascorbic acid 6-hexadecanoate (Botzki et al., 2004) (Sigma). […] Treated EC will either be analyzed for protein expression, hyaluronidase activity or VEGF-induced proliferation, migration or tube formation. […] Cells from the upper and lower chamber were quantitated using the CellTiter96™ MTS assay (Promega, San Luis Obispo, Calif.) and read at 492 nm. % migration was defined as the # of cells in the lower chamber […] the number of cells in both the upper and lower chamber. Each assay was set up in triplicate, repeated at least five times and analyzed statistically by Student's t test (with statistical significance set at P<0.05). […] The in vitro cell proliferation assay was analyzed by measuring increases in cell number using the CellTiter96™ MTS assay (Promega, San Luis Obispo, Calif.) and read at 492 nm. […]

MARCKS and NHE1 = assay: LPS-induced phosphorylation of MARCKS and NHE1 (immunoprecipitation/immunoblot); assay type: cell-based, human; conditions: LPS 1 μg/ml, 4 hours, HMW-HA 100 nM or Y-27632 500 nM

hyaluronan [HMW-HA]
caveolin-1 expression in mouse lungs (caveolin-1): did not significantly alter caveolin-1 expression | VEGF-induced hyaluronidase expression (hyaluronidase): inhibited VEGF-induced hyaluronidase expression | LPS-induced phosphorylation of MARCKS and NHE1 (MARCKS and NHE1): inhibit LPS-induced phosphorylation of MARCKS and NHE1
